Experimental data as given in ChEMBL document CHEMBL1201862, “PubChem BioAssay data set” (2004).
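Method: 48-hour compound exposure of cells in 96-well plates, five concentrations, linear interpolation of endpoints. GI50 = concentration required for 50% inhibition of growth.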 The source made the active and inactive calls. Rule as the data show it: active = GI50 up to about 1.1 µM and inactive = higher.

Assays:
Test in all cases: DTP human tumour cell line panel, 48 h
LOX IMVI = system: LOX IMVI
EKVX = system: EKVX
HOP-92 = system: HOP-92
COLO 205 = system: COLO 205
T47D = system: T47D
SF-268 = system: SF-268
MOLT-4 = system: MOLT-4
NCI-H226 = system: NCI-H226
UO-31 = system: UO-31
HCT-116 = system: HCT-116
OVCAR-4 = system: OVCAR-4
RXF 393 = system: RXF 393
HCC 2998 = system: HCC 2998
MDA-MB-231 = system: MDA-MB-231
NCI-H460 = system: NCI-H460
DU-145 = system: DU-145
UACC-257 = system: UACC-257
MDA-N = system: MDA-N
SK-MEL-5 = system: SK-MEL-5
Malme-3M = system: Malme-3M

Measured: GI50

Nc1nc(N)c(CCCCc2ccccc2)c(N)n1
inactive: LOX IMVI > 100 µM | EKVX > 42.8 µM | HOP-92 > 100 µM | COLO 205 > 100 µM | T47D > 100 µM | SF-268 > 100 µM | MOLT-4 > 100 µM | NCI-H226 > 100 µM | UO-31 > 100 µM | HCT-116 > 100 µM | OVCAR-4 > 100 µM | RXF 393 > 100 µM | HCC 2998 > 100 µM | MDA-MB-231 > 100 µM | NCI-H460 > 100 µM | DU-145 > 100 µM | UACC-257 > 100 µM | MDA-N > 100 µM | SK-MEL-5 > 100 µM | Malme-3M > 100 µM

CC1=NN(c2nc(N)nc(/C(C#N)=C\c3ccc(-c4ccc([N+](=O)[O-])cc4)o3)n2)C(C)(C)C1
inactive: LOX IMVI > 100 µM | EKVX > 100 µM | HOP-92 > 100 µM | COLO 205 > 100 µM | T47D > 100 µM | SF-268 65.5 µM | MOLT-4 > 100 µM | NCI-H226 > 100 µM | UO-31 > 100 µM | HCT-116 > 100 µM | OVCAR-4 > 100 µM | RXF 393 > 100 µM | HCC 2998 > 100 µM | MDA-MB-231 27.5 µM | NCI-H460 > 100 µM | DU-145 > 100 µM | UACC-257 > 100 µM | MDA-N > 100 µM | SK-MEL-5 > 100 µM | Malme-3M > 100 µM

COc1cc2ncnc(Nc3cccc(Br)c3)c2cc1OC
inactive: LOX IMVI 3.1 µM | HOP-92 3.97 µM | COLO 205 4.43 µM | T47D 6.81 µM | SF-268 3.81 µM | MOLT-4 16.6 µM | NCI-H226 3.25 µM | UO-31 1.98 µM | HCT-116 14.4 µM | OVCAR-4 4.07 µM | RXF 393 11.5 µM | HCC 2998 3.26 µM | MDA-MB-231 5.61 µM | NCI-H460 5.75 µM | UACC-257 7.5 µM | MDA-N 7.26 µM | SK-MEL-5 2.18 µM | Malme-3M 7.36 µM
active: EKVX 0.316 µM | DU-145 0.0741 µM

CC(=N\N)/C(C)=N/N=C(C)/C(C)=N/N=C(C)/C(C)=N/N=C(C)/C(C)=N/N
inactive: LOX IMVI > 100 µM | EKVX > 100 µM | COLO 205 > 100 µM | T47D > 100 µM | SF-268 > 100 µM | MOLT-4 20.9 µM | NCI-H226 > 100 µM | UO-31 > 100 µM | HCT-116 > 100 µM | OVCAR-4 > 100 µM | RXF 393 > 100 µM | HCC 2998 > 100 µM | MDA-MB-231 > 100 µM | NCI-H460 > 100 µM | DU-145 > 100 µM | UACC-257 > 100 µM | MDA-N > 100 µM | SK-MEL-5 > 100 µM | Malme-3M > 100 µM
active: HOP-92 0.316 µM

N=C(N)NCCCS(=O)(=O)Nc1ccc(Nc2c3ccccc3nc3cc([N+](=O)[O-])ccc23)cc1
inactive: LOX IMVI 16.4 µM | EKVX 15.7 µM | HOP-92 4.9 µM | COLO 205 14.5 µM | SF-268 6.19 µM | MOLT-4 2.33 µM | NCI-H226 11.7 µM | UO-31 > 68.4 µM | HCT-116 16.5 µM | OVCAR-4 16.6 µM | RXF 393 20.8 µM | HCC 2998 14.7 µM | MDA-MB-231 35.2 µM | DU-145 9.33 µM | UACC-257 22.5 µM | MDA-N 21.3 µM | SK-MEL-5 5.55 µM | Malme-3M 10.1 µM
active: T47D 0.728 µM | NCI-H460 0.265 µM

CN(C)CS/C(N)=N\C(O)C(Cl)(Cl)Cl (configuration not stated)
inactive: LOX IMVI > 100 µM | EKVX > 100 µM | HOP-92 > 100 µM | T47D > 100 µM | SF-268 > 100 µM | MOLT-4 > 100 µM | NCI-H226 > 100 µM | UO-31 > 100 µM | HCT-116 > 100 µM | OVCAR-4 > 100 µM | RXF 393 > 100 µM | HCC 2998 > 100 µM | MDA-MB-231 > 100 µM | NCI-H460 > 100 µM | DU-145 > 100 µM | UACC-257 > 100 µM | MDA-N > 100 µM | SK-MEL-5 > 100 µM | Malme-3M > 100 µM

COc1cccc2c1C(=O)c1c(O)c3c(c(O)c1C2=O)C[C@@](O)(C(=O)CO)C[C@@H]3OC1CC(N)C(OC)C(C)O1 (some centres not stated)
active: LOX IMVI 0.0228 µM | EKVX 0.522 µM | HOP-92 0.0612 µM | COLO 205 0.209 µM | T47D 0.23 µM | SF-268 0.0726 µM | MOLT-4 < 0.01 µM | NCI-H226 0.0553 µM | UO-31 0.437 µM | HCT-116 0.0282 µM | OVCAR-4 0.458 µM | RXF 393 0.19 µM | HCC 2998 0.139 µM | MDA-MB-231 0.474 µM | NCI-H460 < 0.01 µM | DU-145 0.264 µM | UACC-257 0.282 µM | MDA-N 0.352 µM | SK-MEL-5 0.0362 µM | Malme-3M 0.0532 µM

COC1=CC(=O)c2c(cc(COP(=O)(OCC3OC(n4cc(F)c(=O)[nH]c4=O)CC3O)N(C)CCCCCl)n2C)C1=O (configuration not stated)
inactive: EKVX 3.86 µM | OVCAR-4 1.82 µM | MDA-MB-231 3.82 µM | UACC-257 18.5 µM | Malme-3M 2.42 µM
active: LOX IMVI 0.0148 µM | HOP-92 0.137 µM | T47D 0.991 µM | SF-268 < 0.01 µM | MOLT-4 0.0527 µM | NCI-H226 0.546 µM | UO-31 0.0605 µM | HCT-116 0.138 µM | RXF 393 0.0478 µM | HCC 2998 < 0.01 µM | NCI-H460 < 0.01 µM | DU-145 0.321 µM | MDA-N 0.41 µM | SK-MEL-5 0.0329 µM

COc1cccc2cc(C(N)=O)c(=N)oc12
inactive: LOX IMVI 30.7 µM | EKVX 29.2 µM | HOP-92 81.8 µM | COLO 205 49.4 µM | T47D 37.3 µM | SF-268 51.1 µM | MOLT-4 > 100 µM | NCI-H226 96.2 µM | HCT-116 28.6 µM | OVCAR-4 53.5 µM | RXF 393 70.5 µM | HCC 2998 41.3 µM | MDA-MB-231 65.2 µM | NCI-H460 37.2 µM | DU-145 92.5 µM | UACC-257 > 100 µM | MDA-N 59.7 µM | SK-MEL-5 49.2 µM | Malme-3M 19.2 µM

CCOC(=O)c1c(N2CCCC2)nsc1Nc1ccccc1
inactive: LOX IMVI > 100 µM | EKVX > 100 µM | HOP-92 40.6 µM | COLO 205 > 100 µM | T47D > 100 µM | SF-268 > 100 µM | MOLT-4 > 100 µM | NCI-H226 > 100 µM | UO-31 27.5 µM | HCT-116 > 100 µM | OVCAR-4 > 100 µM | RXF 393 > 100 µM | HCC 2998 > 100 µM | MDA-MB-231 > 100 µM | NCI-H460 > 100 µM | DU-145 > 100 µM | UACC-257 > 100 µM | MDA-N > 100 µM | SK-MEL-5 > 100 µM | Malme-3M > 100 µM

CC(=O)Oc1c2ccsc2c(OC(C)=O)c2ccsc12
active: LOX IMVI 0.184 µM | HOP-92 0.577 µM | SF-268 0.906 µM | MOLT-4 0.955 µM | HCT-116 0.764 µM | OVCAR-4 0.67 µM | RXF 393 0.0172 µM | DU-145 0.412 µM | UACC-257 0.189 µM | MDA-N 0.12 µM | SK-MEL-5 0.167 µM | Malme-3M 0.286 µM
inactive: EKVX 1.5 µM | COLO 205 1.76 µM | T47D 1.89 µM | NCI-H226 2.54 µM | UO-31 1.33 µM | HCC 2998 1.8 µM | MDA-MB-231 1.29 µM | NCI-H460 1.81 µM

CC1(C)C2CC(c3ccncc3)ON2C(C)(C)N1O (configuration not stated)
inactive: LOX IMVI > 100 µM | EKVX > 100 µM | HOP-92 > 100 µM | COLO 205 > 100 µM | T47D > 100 µM | SF-268 > 100 µM | MOLT-4 > 100 µM | NCI-H226 > 100 µM | UO-31 > 100 µM | HCT-116 > 100 µM | OVCAR-4 > 100 µM | RXF 393 > 100 µM | HCC 2998 > 100 µM | MDA-MB-231 > 100 µM | NCI-H460 > 100 µM | DU-145 > 100 µM | UACC-257 > 100 µM | MDA-N > 100 µM | SK-MEL-5 > 100 µM | Malme-3M > 100 µM

CN(C)CCNc1ccc2nnn3c4ccc(Cl)cc4c(=O)c1c23
active: MOLT-4 0.624 µM
inactive: LOX IMVI 1.6 µM | EKVX 4.45 µM | HOP-92 3.69 µM | COLO 205 1.18 µM | T47D 14.4 µM | SF-268 3.4 µM | NCI-H226 2.06 µM | UO-31 1.56 µM | HCT-116 1.48 µM | OVCAR-4 2.94 µM | RXF 393 3.15 µM | HCC 2998 8.67 µM | MDA-MB-231 11.1 µM | NCI-H460 2.48 µM | DU-145 5.22 µM | UACC-257 5.19 µM | MDA-N 3.52 µM | SK-MEL-5 2.94 µM | Malme-3M 4.89 µM

O=C(NCCc1ccc(F)cc1)c1cc(/C=C/c2cc(O)ccc2O)ccc1O
inactive: LOX IMVI 3.38 µM | EKVX 2.42 µM | HOP-92 1.85 µM | COLO 205 3.14 µM | T47D 2.24 µM | SF-268 3.47 µM | MOLT-4 2.48 µM | NCI-H226 8.59 µM | UO-31 1.66 µM | HCT-116 1.95 µM | OVCAR-4 2.67 µM | RXF 393 2.03 µM | HCC 2998 7.23 µM | MDA-MB-231 3.3 µM | NCI-H460 9.75 µM | DU-145 10.3 µM | UACC-257 2.41 µM | MDA-N 3.05 µM | SK-MEL-5 2.4 µM | Malme-3M 2.42 µM
